Assay results published in publication PMC12505902, “Inhibitors of trehalose-6-phosphate synthase activity in fungal pathogens compromise thermal tolerance pathways” (mBio, 2025).
Where two headings read alike, the source gives them in different places.

Columns and labels:
[1] = system: C. deneoformans (JEC21); test: MIC dose-response assay in YPD; assay type: cell-based; conditions: Cryptococcus deneoformans
Protocol: Fig 4 4456dh inhibits the growth of Candida and Cryptococcus species. Two-fold dose response assays were performed against (A) C. albicans at 42°C and C. auris at 39°C, (B) C. glabrata at 42°C, and (C) C. neoformans, C. deneoformans, and C. gattii at 37°C. 4456dh was administered at the concentrations indicated. Cultures were grown in YPD at the listed temperatures for 48 hours for Candida species and 72 hours for Cryptococcus species. Experimental temperatures reflect the temperatures at which the fungi experience heat stress. Left: relative growth of treated samples was calculated by averaging technical triplicates and normalizing the OD600 of each treated well to the average OD600 of the untreated WT controls, after the absorbance due to the compound was subtracted. The MIC80 values, calculated based on the OD600 values, are indicated in the white text on each heat map. Right: representative spot assays show the ability of cells to grow after exposure to 4456dh and indicate fungicidal activity of 4456dh. […]
(§1) 124 technical replicates. Growth, as determined by a reading of absorbance at 600 nm, was
125 normalized to untreated controls and was corrected for the absorbance of 4456dh in the YPD […]
(§2) 129 overnight cultures was quantified by measuring the OD600 and corrected for the background
130 absorbance of the medium. Antifungal potency for 4456dh was assessed by minimum inhibitory […]
(§3) 137 replicates. Growth, as determined by a reading of absorbance at 600 nm, was normalized to
(§4) 138 untreated controls and was corrected for the absorbance of 4456dh in the YPD medium. […]
(§5) 139 minimum inhibitory concentration causing 80% growth reduction, or MIC80, was determined based […]
(§6) 157 Optical density (OD600) was determined with an Infinite PRO plate reader ( Tecan). […]

[2] = system: C. deneoformans; test: Zone of inhibition assay; assay type: cell-based
Protocol: To test this hypothesis, we performed zone of inhibition studies in the C. deneoformans background (Fig. S8A).
123 hours. All dose- response assays were performed in biological triplicate with a minimum of three
as §1
125 normalized to untreated controls and was corrected for the absorbance of 4456dh in the YPD
126 medium. Growth was plotted as a heat map using Excel.
127 Wild-t y pe C. neoformans strains H99, wild-type C. deneoformans JEC21 and wild- t y pe C. gattii
128 R265 were cultured overnight in YPD (yeast-peptone- dextrose) medium at 30 °C. Growth of the
as §2
130 absorbance of the medium. Antifungal potency for 4456dh was assessed by minimum inhibitory
131 concentration (MIC) dose-response assays performed under standard Clinical and Lab Standards […]
as §3, §4, §5
149 mM 4456dh. The OD600 was determined followed by dilution of overnight cultures to an equivalent […]
as §6

For `Cn1cc(-c2csc(NC(=O)Cc3ccccn3)n2)cn1` [Compound 4456dh], the MIC80 [1] was > 13000 µM, the MIC80 ([1]; 37°C, YPD, 72 hours, read-out: MIC80) was 3000 µM and the MIC80 ([1]; Supplemental Table 5, This publication, read-out: MIC80) was 1190 µg/mL. The zone of inhibition ([2]; C. deneoformans tps1Δ cells, 30°C) was “diffuse yet visible zone of inhibition” and the zone of inhibition ([2]; C. deneoformans wild-type (JEC21, JEC20), 37°C) was “distinct zone of inhibition”.
